This is an account of results in publication PMC12196291, “Absolute Configuration and Chiroptical Properties of Flexible Drug Avapritinib” (Pharmaceuticals, 2025).

The target of the experiment is C-KIT (D816V) (Homo sapiens, UniProt P10721, D816V). The experiment can be described thus: in vitro kinase activity assay (substrate/ATP, 384-well, ELISA-BMG readout), positive control. The class given is biochemical. (An ELISA detects its analyte on a solid surface through an enzyme-linked reagent.)
C-KIT (D816V), sequence (P10721 546-976 D816V limits assumed): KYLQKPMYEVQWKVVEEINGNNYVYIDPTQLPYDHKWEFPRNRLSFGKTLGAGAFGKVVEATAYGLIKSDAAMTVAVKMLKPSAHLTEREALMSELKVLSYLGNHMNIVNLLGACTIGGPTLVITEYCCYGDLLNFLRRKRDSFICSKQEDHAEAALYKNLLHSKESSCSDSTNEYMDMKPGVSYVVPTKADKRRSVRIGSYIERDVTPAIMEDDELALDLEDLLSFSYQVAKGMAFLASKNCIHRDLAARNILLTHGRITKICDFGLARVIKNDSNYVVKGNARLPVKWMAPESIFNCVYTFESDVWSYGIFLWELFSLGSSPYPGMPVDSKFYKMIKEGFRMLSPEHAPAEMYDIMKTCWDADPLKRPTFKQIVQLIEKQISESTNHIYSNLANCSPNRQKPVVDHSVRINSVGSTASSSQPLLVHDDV

Turning to `S=C(NCc1ccc2c(c1)OCO2)N1CCN(c2ncnc3c2oc2ccccc23)CC1` [Amuvatinib], the half-maximal inhibitory concentration (IC50) – broadly, the point on the concentration scale where inhibition reaches its midpoint – was found to be 0.0269 ± 0.00151 µM.
